Assays:
[1] = system: hepatocellular carcinoma (HepG2); assay: MTT cytotoxicity assay; assay type: cell-based; details: Homo sapiens, 24 h exposure, mean ± SD of triplicate
Protocol: (§1) The cytotoxic effects of compounds 5a–m were evaluated using a standard MTT method against four different cancer cell lines, namely mammary gland cancer (MCF-7), hepatocellular carcinoma (HepG2), breast cancer (MDA-MB-231), and epithelioid cervix carcinoma (HeLa). […] These findings highlight the potential of these compounds as candidates for further development as cytotoxic agents for cancer treatment.
(§2) The cytotoxicity of compounds 5a–m was assessed against various cancer cell lines and one normal cell line using the described methodology. In brief, the cells were cultured in 96-well plates with a density of 1.0 × 10^4 cells per well, supplemented with 10% fetal bovine serum (FBS), an antibiotic cocktail, and RPMI 11,640 medium. The cells were then incubated for 48 h with 5% CO2 and 100% relative humidity at 37 °C. […] Following treatment, the addition of 20 µL of MTT solution was added to each well and incubation was continued for another 4 h, after which dimethyl sulfoxide (100 µL) was used to dissolve the resulting insoluble formazan. The absorbance was measured at 570 nm using a BioTek EXL 800 plate reader (Agilent Technologies, CA, USA). By comparing the absorbance of treated samples to untreated samples, the relative cell viability percentage was calculated as (A570 of treated samples/A570 of untreated sample) × 100. The IC50 values were determined based on triplicate measurements.

[2] = system: breast cancer (MDA-MB-231); assay: MTT cytotoxicity assay; assay type: cell-based; details: Homo sapiens, 24 h exposure, mean ± SD of triplicate
Protocol: as §1, §2

[3] = system: mammary gland cancer (MCF-7); assay: MTT cytotoxicity assay; assay type: cell-based; details: Homo sapiens, MCF7, 24 h, 24 h exposure, mean ± SD of triplicate
Protocol: as §1, §2

[4] = system: epithelioid cervix carcinoma (HeLa); assay: MTT cytotoxicity assay; assay type: cell-based; details: Homo sapiens, 24 h exposure, mean ± SD of triplicate
[5] = system: four different cancer cell lines (MCF-7, HepG2, MDA-MB-231, HeLa); assay: MTT cytotoxicity assay, range over the four cell lines; assay type: cell-based; details: read-out: IC50 values, range over the tested cancer cell lines
Protocol: as §1, §2

CDK2 = target: T1, CDK2 (Homo sapiens, UniProt P24941); assay: In vitro protein kinase inhibition assay (ELISA kit); assay type: biochemical; details: triplicate
T1 construct: purchased
Protocol: (§3) In accordance with the documented procedures, fifteen derivatives of the synthesized compounds were evaluated for their inhibitory effects on EGFR, VEGFR-2, Her2, and CDK2 using specific human ELISA kits (Enzyme-Linked Immunosorbent Assay) designed for each respective kinase enzyme. Initially, various concentrations of the synthesized compounds were combined with specific antibodies for each enzyme in individual wells of a 96-well plate, followed by incubation at room temperature for 2.5 h. Subsequently, the plate was washed, and a biotin antibody (100 µL), prepared in-house, was added and allowed to incubate at ambient temperature for 1 h. After another washing step, a solution of streptavidin (100 µL) was introduced to each well and left for 45 min at room temperature. Following a third round of washing, a TMB Substrate (100 µL) reagent was applied to all wells and incubated for 30 min at room temperature. Finally, the reaction was terminated by adding 50 µL of a stop solution, and the absorbance was directly measured at 450 nm. A standard curve was constructed, illustrating the relationship between concentration (X-axis) and absorbance (Y-axis).

EGFR = target: T2, EGFR (Homo sapiens, UniProt P00533); assay: as above; assay type: biochemical; details: triplicate
T2 construct: purchased
T2 sequence (P00533 25-1210): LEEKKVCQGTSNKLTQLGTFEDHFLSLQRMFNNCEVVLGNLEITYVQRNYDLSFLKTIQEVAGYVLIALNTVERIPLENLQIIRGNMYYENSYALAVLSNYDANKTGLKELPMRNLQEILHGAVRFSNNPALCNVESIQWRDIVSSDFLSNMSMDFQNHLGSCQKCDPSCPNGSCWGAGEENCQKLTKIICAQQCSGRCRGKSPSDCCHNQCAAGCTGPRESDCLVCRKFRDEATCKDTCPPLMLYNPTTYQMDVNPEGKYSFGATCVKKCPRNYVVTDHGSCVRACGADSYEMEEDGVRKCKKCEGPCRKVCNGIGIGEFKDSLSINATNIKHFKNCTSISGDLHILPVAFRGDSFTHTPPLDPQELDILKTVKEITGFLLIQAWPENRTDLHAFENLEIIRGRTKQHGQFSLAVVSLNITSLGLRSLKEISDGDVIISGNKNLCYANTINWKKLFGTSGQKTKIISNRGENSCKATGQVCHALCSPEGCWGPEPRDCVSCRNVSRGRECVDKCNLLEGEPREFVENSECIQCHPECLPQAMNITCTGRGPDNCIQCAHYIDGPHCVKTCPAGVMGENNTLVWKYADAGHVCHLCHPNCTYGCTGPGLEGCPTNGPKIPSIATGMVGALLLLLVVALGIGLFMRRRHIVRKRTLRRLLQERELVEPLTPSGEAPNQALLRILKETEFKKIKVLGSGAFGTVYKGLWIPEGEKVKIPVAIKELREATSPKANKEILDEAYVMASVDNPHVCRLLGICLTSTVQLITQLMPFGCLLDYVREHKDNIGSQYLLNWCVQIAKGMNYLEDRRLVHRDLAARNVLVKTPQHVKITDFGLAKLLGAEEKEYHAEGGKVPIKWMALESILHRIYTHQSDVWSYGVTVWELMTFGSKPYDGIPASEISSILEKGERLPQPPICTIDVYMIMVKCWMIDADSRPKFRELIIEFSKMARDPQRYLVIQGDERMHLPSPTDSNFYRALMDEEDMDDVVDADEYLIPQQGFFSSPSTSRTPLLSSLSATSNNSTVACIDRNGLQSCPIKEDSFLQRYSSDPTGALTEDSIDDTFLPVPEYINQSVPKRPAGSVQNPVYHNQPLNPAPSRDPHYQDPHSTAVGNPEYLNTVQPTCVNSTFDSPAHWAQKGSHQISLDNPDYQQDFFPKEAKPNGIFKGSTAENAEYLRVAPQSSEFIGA
Protocol: as §3

Her2 = target: T3, Her2 (Homo sapiens, UniProt P04626); assay: as above; assay type: biochemical; details: triplicate
T3 construct: purchased
T3 sequence (P04626 23-1255): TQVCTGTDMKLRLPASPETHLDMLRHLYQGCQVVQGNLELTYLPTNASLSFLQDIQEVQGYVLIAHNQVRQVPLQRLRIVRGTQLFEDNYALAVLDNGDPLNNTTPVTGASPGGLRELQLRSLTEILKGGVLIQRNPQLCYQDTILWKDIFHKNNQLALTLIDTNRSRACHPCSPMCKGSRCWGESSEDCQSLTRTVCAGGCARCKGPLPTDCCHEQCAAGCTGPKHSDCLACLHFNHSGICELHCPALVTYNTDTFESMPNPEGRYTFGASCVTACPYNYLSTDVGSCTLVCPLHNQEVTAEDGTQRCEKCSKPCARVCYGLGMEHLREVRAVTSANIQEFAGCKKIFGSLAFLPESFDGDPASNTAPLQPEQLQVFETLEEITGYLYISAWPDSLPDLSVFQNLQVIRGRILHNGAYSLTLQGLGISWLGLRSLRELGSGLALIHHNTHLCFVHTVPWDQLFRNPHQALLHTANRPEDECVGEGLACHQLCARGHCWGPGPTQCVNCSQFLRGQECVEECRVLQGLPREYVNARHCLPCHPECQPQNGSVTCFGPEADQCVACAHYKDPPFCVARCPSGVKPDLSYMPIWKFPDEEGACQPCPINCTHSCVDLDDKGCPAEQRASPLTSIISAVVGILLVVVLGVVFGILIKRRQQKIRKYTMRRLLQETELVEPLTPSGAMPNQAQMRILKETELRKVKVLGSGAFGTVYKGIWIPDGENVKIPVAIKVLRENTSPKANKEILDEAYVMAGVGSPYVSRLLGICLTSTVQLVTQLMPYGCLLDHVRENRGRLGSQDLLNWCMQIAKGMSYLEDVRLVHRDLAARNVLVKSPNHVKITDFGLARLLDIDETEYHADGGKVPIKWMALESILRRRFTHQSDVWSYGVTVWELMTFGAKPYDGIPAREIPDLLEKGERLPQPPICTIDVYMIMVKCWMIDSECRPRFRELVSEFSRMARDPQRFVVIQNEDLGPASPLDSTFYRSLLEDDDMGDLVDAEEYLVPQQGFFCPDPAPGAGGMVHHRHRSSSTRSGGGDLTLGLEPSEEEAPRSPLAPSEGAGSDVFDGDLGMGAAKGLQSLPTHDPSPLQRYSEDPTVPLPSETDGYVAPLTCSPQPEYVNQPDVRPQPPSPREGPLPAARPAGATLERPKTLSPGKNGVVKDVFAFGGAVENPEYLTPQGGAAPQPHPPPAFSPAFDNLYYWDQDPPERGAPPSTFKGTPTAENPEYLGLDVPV
Protocol: as §3

VEGFR2 = target: T4, VEGFR2 (Homo sapiens, UniProt P35968); assay: as above; assay type: biochemical; details: triplicate
T4 construct: purchased
T4 sequence (P35968 20-1356): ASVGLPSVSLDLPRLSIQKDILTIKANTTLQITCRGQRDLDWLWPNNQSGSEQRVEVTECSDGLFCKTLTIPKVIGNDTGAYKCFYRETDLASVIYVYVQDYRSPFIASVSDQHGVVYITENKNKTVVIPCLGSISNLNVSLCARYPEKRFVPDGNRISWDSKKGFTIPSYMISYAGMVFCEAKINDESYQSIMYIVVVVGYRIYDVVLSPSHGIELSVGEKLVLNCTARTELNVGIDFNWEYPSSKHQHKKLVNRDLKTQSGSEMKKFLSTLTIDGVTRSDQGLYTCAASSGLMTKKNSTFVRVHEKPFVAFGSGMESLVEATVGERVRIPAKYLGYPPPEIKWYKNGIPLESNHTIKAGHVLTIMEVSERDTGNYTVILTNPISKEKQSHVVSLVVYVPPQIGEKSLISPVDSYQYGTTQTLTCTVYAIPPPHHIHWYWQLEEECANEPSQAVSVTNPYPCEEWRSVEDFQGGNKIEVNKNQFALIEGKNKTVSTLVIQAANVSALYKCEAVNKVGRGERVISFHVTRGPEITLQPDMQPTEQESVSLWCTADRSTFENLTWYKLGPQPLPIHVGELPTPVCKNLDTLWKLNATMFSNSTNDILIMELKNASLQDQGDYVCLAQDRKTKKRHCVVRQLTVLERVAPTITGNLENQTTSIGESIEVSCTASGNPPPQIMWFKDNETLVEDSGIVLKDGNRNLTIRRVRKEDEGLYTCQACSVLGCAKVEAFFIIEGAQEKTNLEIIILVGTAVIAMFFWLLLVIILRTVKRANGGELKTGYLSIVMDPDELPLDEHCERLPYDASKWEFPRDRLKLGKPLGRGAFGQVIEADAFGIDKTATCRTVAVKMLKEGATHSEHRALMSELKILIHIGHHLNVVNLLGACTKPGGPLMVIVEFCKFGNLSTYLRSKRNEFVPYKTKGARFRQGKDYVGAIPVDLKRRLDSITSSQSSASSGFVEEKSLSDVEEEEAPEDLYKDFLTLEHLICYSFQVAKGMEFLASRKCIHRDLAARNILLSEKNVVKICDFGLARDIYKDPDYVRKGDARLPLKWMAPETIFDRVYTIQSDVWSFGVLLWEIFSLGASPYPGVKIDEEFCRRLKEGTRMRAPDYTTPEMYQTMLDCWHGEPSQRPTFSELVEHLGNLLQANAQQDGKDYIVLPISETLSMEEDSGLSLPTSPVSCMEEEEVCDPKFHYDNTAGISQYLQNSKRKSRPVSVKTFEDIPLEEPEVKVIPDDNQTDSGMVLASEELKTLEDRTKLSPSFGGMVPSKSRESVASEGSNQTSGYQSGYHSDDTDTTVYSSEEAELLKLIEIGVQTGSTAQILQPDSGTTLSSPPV
Protocol: as §3

Bcl-2 = assay: Apoptotic protein levels assay (ELISA) in HepG2 cells; assay type: cell-based; details: 24 h, ELISA, control 11.7 ± 0.36
Excerpt: (§4) To validate the mechanism of cell death and the induction of apoptosis caused by compound 5k, the expression levels of some apoptotic proteins were investigated. […] Specifically, the levels of caspase-3 (6.9 folds higher than the control) and Bax (2.6 folds higher than the control) were higher in the group treated with 5k compared to the control group. Caspase-3 is a key enzyme involved in the execution of apoptosis, while Bax is a pro-apoptotic protein that promotes cell death. […] Bcl-2 is a protein that inhibits apoptosis, so the lower levels of Bcl-2 in the 5k treated group further support the notion that treatment with 5k may induce apoptosis in HepG2 cells. […] These findings may have implications for the development of novel therapies for diseases involving abnormal cell death, including cancer. Further studies are warranted in order to elucidate the underlying mechanisms of action of compound 5k and to assess its potential therapeutic applications.
(§5) The ELISA technique was employed to assess the impact of compound 5k on the alteration of protein levels associated with caspase-3, BAX, and Bcl-2. Specifically, the following ELISA kits were utilized: KHO1091 (InvitrogenTM, Grand Island, NY, USA) for caspase-3, EIA-4860 and EIA-4487 for BAX, (DRU International INC., Mountainside, NJ, USA), and 99-0042 (InvitrogenTM, Grand Island, NY, USA) for Bcl-2 for the respective measurements. The experimental procedures were conducted according to the instructions provided by the manufacturers and our recently published article. Initially, HepG2 cells were cultured in triplicate in 96-well plates. Following a 24-h incubation period, the cells were subjected to various concentrations of compound 5k, while a control group was treated with 0.1% DMSO (V/V). After an additional 24-h incubation, the absorbance levels were assessed using a BioTek Synergy H1 Multi-mode Reader (Agilent Technologies, Santa Clara, CA, USA) at wavelengths ranging from 450 to 650 nm.

Bax = assay: as above; assay type: cell-based; details: 24 h, ELISA, control 67.09 ± 4.94
Excerpt: as §4, §5

caspase-3 = assay: as above; assay type: cell-based; details: 24 h, ELISA, control 66.28 ± 4.66
Excerpt: as §4, §5

O=C(N/N=C/c1ccccc1)c1ccc(Nc2ncnc3[nH]ccc23)cc1 [Compound 5a, (E)-4-((7H-Pyrrolo[2,3-d]pyrimidin-4-yl)amino)-N’-benzylidenebenzohydrazide]
melting point: 294 °C | IC50 [1]: 43.1 ± 2.7 µM | IC50 [2]: 56.2 ± 3.2 µM | IC50 [3]: 64.9 ± 3.6 µM | IC50 [4]: 68.2 ± 3.3 µM | IC50 [5]: 43.1 to 68.2 µM

O=C(N/N=C/c1ccccc1Br)c1ccc(Nc2ncnc3[nH]ccc23)cc1 [Compound 5b, (E)-4-((7H-Pyrrolo[2,3-d]pyrimidin-4-yl)amino)-N’-(2-bromobenzylidene)benzohydrazide]
melting point: 294 °C | IC50 [1]: 53.2 ± 3.1 µM | IC50 [2]: 79.2 ± 4.1 µM | IC50 [3]: 83.9 ± 4.3 µM | IC50 [4]: 90.6 ± 4.7 µM

O=C(N/N=C/c1cccc(Br)c1)c1ccc(Nc2ncnc3[nH]ccc23)cc1 [Compound 5c, (E)-4-((7H-Pyrrolo[2,3-d]pyrimidin-4-yl)amino)-N’-(3-bromobenzylidene)benzohydrazide]
melting point: 296 °C | IC50 [1]: 48.5 ± 2.9 µM | IC50 [2]: 75.8 ± 3.9 µM | IC50 [3]: 80.7 ± 4 µM | IC50 [4]: 85.5 ± 4.1 µM

O=C(N/N=C/c1ccc(Br)cc1)c1ccc(Nc2ncnc3[nH]ccc23)cc1 [Compound 5d, (E)-4-((7H-Pyrrolo[2,3-d]pyrimidin-4-yl)amino)-N’-(4-bromobenzylidene)benzohydrazide]
melting point: 321 °C | IC50 [1]: 62.4 ± 3.5 µM | IC50 [2]: 81.5 ± 4 µM | IC50 [3]: 88.2 ± 4.5 µM | IC50 [4]: 95.8 ± 5.1 µM

O=C(N/N=C/c1ccccc1Cl)c1ccc(Nc2ncnc3[nH]ccc23)cc1 [Compound 5e, (E)-4-((7H-Pyrrolo[2,3-d]pyrimidin-4-yl)amino)-N’-(2-chlorobenzylidene)benzohydrazide]
IC50 [1]: 29.1 ± 2.5 µM | IC50 [2]: 48.1 ± 2.6 µM | IC50 [3]: 55.3 ± 3.1 µM | IC50 [4]: 53 ± 2.9 µM | IC50 (CDK2): 2120 nM | IC50 (EGFR): 1140 nM | IC50 (Her2): 335 nM | IC50 (VEGFR2): 593 nM | IC50 [5]: 29 to 59 µM

O=C(N/N=C/c1cccc(Cl)c1)c1ccc(Nc2ncnc3[nH]ccc23)cc1 [Compound 5f, (E)-4-((7H-Pyrrolo[2,3-d]pyrimidin-4-yl)amino)-N’-(3-chlorobenzylidene)benzohydrazide]
melting point: 281 °C | IC50 [1]: 74.6 ± 3.9 µM | IC50 [2]: 86.6 ± 4.6 µM | IC50 [3]: 94.7 ± 4.9 µM | IC50 [4]: > 100 µM

O=C(N/N=C/c1ccc(Cl)cc1)c1ccc(Nc2ncnc3[nH]ccc23)cc1 [Compound 5g, (E)-4-((7H-Pyrrolo[2,3-d]pyrimidin-4-yl)amino)-N’-(4-chlorobenzylidene)benzohydrazide]
melting point: 314 °C | IC50 [1]: 51.9 ± 3 µM | IC50 [2]: 67.6 ± 3.7 µM | IC50 [3]: 73.3 ± 3.9 µM | IC50 [4]: 79.7 ± 3.9 µM

O=C(N/N=C/c1ccccc1F)c1ccc(Nc2ncnc3[nH]ccc23)cc1 [Compound 5h, (E)-4-((7H-Pyrrolo[2,3-d]pyrimidin-4-yl)amino)-N’-(2-fluorobenzylidene)benzohydrazide]
IC50 [1]: 33.2 ± 2.4 µM | IC50 [2]: 45.2 ± 2.5 µM | IC50 [3]: 52.4 ± 2.9 µM | IC50 [4]: 49.9 ± 2.8 µM | IC50 (CDK2): 1020 nM | IC50 (EGFR): 636 nM | IC50 (Her2): 206 nM | IC50 (VEGFR2): 1040 nM | IC50 [5]: 29 to 59 µM

O=C(N/N=C/c1cccc(F)c1)c1ccc(Nc2ncnc3[nH]ccc23)cc1 [Compound 5i, (E)-4-((7H-Pyrrolo[2,3-d]pyrimidin-4-yl)amino)-N’-(3-fluorobenzylidene)benzohydrazide]
melting point: 295 °C | IC50 [1]: 45 ± 2.8 µM | IC50 [2]: 63.8 ± 3.5 µM | IC50 [3]: 69.9 ± 3.8 µM | IC50 [4]: 76.1 ± 3.7 µM

O=C(N/N=C/c1ccc(F)cc1)c1ccc(Nc2ncnc3[nH]ccc23)cc1 [Compound 5j, (E)-4-((7H-Pyrrolo[2,3-d]pyrimidin-4-yl)amino)-N’-(4-fluorobenzylidene)benzohydrazide]
melting point: 309 °C | IC50 [1]: 42.6 ± 2.8 µM | IC50 [2]: 58.5 ± 3.3 µM | IC50 [3]: 66.4 ± 3.6 µM | IC50 [4]: 71.7 ± 3.5 µM

O=C(N/N=C/c1cc(Br)ccc1O)c1ccc(Nc2ncnc3[nH]ccc23)cc1 [Compound 5l, (E)-4-((7H-Pyrrolo[2,3-d]pyrimidin-4-yl)amino)-N’-(5-bromo-2-hydroxybenzylidene)benzohydrazide]
IC50 [1]: 36.3 ± 2.6 µM | IC50 [2]: 41.3 ± 2.4 µM | IC50 [3]: 47.1 ± 2.5 µM | IC50 [4]: 46.1 ± 2.4 µM | IC50 (CDK2): 599 nM | IC50 (EGFR): 406 nM | IC50 (Her2): 193 nM | IC50 (VEGFR2): 1200 nM | IC50 [5]: 29 to 59 µM

O=C(N/N=C/c1cccc(C(F)(F)F)c1)c1ccc(Nc2ncnc3[nH]ccc23)cc1 [Compound 5m, (E)-4-((7H-Pyrrolo[2,3-d]pyrimidin-4-yl)amino)-N’-(3-(trifluoromethyl)benzylidene)benzohydrazide]
melting point: 280 °C | IC50 [1]: 39.8 ± 2.7 µM | IC50 [2]: 53.7 ± 3 µM | IC50 [3]: 61.9 ± 3.3 µM | IC50 [4]: 64.5 ± 3.4 µM

CN[C@@H]1C[C@H]2O[C@@](C)([C@@H]1OC)n1c3ccccc3c3c4c(c5c6ccccc6n2c5c31)C(=O)NC4 [Staurosporine, reference compound]
Protein Expression (Pg/mL) Bcl-2 (Bcl-2): 4.404 ± 0.09 pg/mL | Protein Expression (Pg/mL) Bax (Bax): 276.9 ± 2.26 pg/mL | Protein Expression (Pg/mL) Caspase-3 (caspase-3): 684.6 ± 13.4 pg/mL

CCN(CC)CCNC(=O)c1c(C)[nH]c(/C=C2\C(=O)Nc3ccc(F)cc32)c1C [Sunitinib, reference compound]
IC50 [4]: 21.8 ± 1.7 µM
